Assays:
patients with DVT [1] = test: Putative indirect comparison of idrabiotaparinux with standard treatment (EQUINOX OR times van Gogh DVT OR); format: in vivo, human; conditions: 95% CI: 0.061-1.020; p value 0.053; calculated as 0.200 times 1.245
Experimental: For major bleedings, the putative odds ratio (OR) comparing idrabiotaparinux to the standard treatment (OR=0.249 [95% CI: 0.061-1.020]) yielded a p value of 0.053; this putative OR was calculated as OR of idrabiotaparinux versus idraparinux in EQUINOX (0.200) times OR of idraparinux versus standard treatment in van Gogh DVT (1.245).

[2] = system: patients with acute symptomatic DVT; test: EQUINOX clinical trial: bleeding (safety) and efficacy over 6 months of treatment; format: in vivo, human; conditions: for Kaplan-Meier cumulative incidence of first bleeding (any bleeding), comparison of the two groups: FIG. 1; for Major bleeding, number of patients [n] / Any bleeding (clinically relevant major or non-major), % of patients / Any bleeding (clinically relevant major or non-major), number of patients [n] / Major bleeding, % of patients (incidence): first study drug administration up to D182; for Any bleeding (clinically relevant major or non-major), % of patients: crude rate; for Any bleeding (clinically relevant major or non-major), number of patients [n]: once-weekly s.c., equimolar doses (idrabiotaparinux 3.0 mg, idraparinux 2.5 mg); for Major bleeding, % of patients (incidence): p=0.006 Fisher's exact test
Source text: (§1) This trial was aimed at studying the bioequipotency of idrabiotaparinux and idraparinux, as assessed by anti-Xa activity at month 6, in patients with acute symptomatic DVT, as well as studying the ability to neutralize idrabiotaparinux with avidin, and also at documenting the safety and efficacy of idrabiotaparinux and idraparinux.
The study was an international, multi-center, double-blind, randomized, with two parallel groups phase III study, in patients treated for acute symptomatic DVT. In order to get 600 patients (300 patients in each treatment group) who completed the 6-month treatment with idrabiotaparinux or idraparinux, 700 patients with confirmed symptomatic DVT of the lower limbs were to be randomized to either idrabiotaparinux (n=350 patients) or idraparinux (n=350 patients). 300 completed patients per group, with a 6-month extent of exposure to the drug, were considered as an adequate sample size to assess clinical safety of idrabiotaparinux, i.e. to characterize the pattern of adverse events over time.
During the study period, patients were treated with equimolar doses of idrabiotaparinux (3.0 mg) or of idraparinux (2.5 mg). The drug was injected subcutaneously, once-weekly.
For safety, the main endpoints were clinically relevant bleeding (major or clinically relevant non-major), as classified by the Central Independent Adjudication Committee (hereafter “CIAC”), and death (cause of death validated by the CIAC).
The safety population consisted of all randomized patients who took at least one dose of study medication (all treated population). Patients were analyzed according to the treatment they actually received.
The main safety analysis period was the randomized treatment period, defined as the period from first study drug administration (taken as Day 1) up to Day 182 (hereafter “D182”).
The numbers and percentages of patients with clinically relevant bleeding within 6 months (from first study drug administration up to Day 182) were presented by treatment group. The rate of any clinically relevant bleeding was calculated by dividing the number of patients with this event by the number of treated patients (crude rate). Bleeding rate estimates and exact 95% confidence interval (hereafter “C1”) were presented by treatment group. Cumulative incidences of any clinically relevant bleeding during the on-treatment period were also described by treatment group using the Kaplan-Meier method. Time to first clinically relevant bleeding was censored at the minimum day between: Day 182; the day of last study drug administration+7 days; the day of death; and the day of last clinical event assessment giving any information on bleeding symptoms.
The numbers and percentages (crude rates) of patients with major bleedings within 6 months (from first study drug administration up to Day 182) were also presented by treatment group. The criteria used by the CIAC to classify major bleedings were summarized according to the worst severity. The order of severity was: fatal bleeding, including fatal intra-cranial hemorrhage (hereafter “ICH”), non-fatal bleeding within a critical organ, non-fatal bleeding with fall in hemoglobin or transfusion.

activated factor X = test: EQUINOX clinical trial: bioequipotency assessed by anti-Xa activity; format: in vivo, human; conditions: equimolar doses
Source text: as §1

patients with DVT [3] = test: VAN GOGH clinical trial (DVT): bleeding incidence, idraparinux versus standard therapy; format: in vivo, human
Source text: According to the results published in N. Engl.

patients with DVT [4] = conditions: 6 months after start of treatment (Day 183), N. Engl. J. Med., 2007, 357, 1094-104; cited from earlier work
[5] = major bleedings up to D182 by adjudication criterion, all treated population

Structure (SMILES) | Major bleeding, number of patients [n] ([2]; all treated population) | Any bleeding (clinically relevant major or non-major), % of patients ([2]; all treated population) [%] | Any bleeding (clinically relevant major or non-major), number of patients [n] ([2]; all treated population) | Major bleeding, % of patients (incidence) ([2]; all treated population) [%] | Fatal bleeding: Gastrointestinal, number of patients [n] [2, 5] | Fatal bleeding: Intracranial, number of patients [n] [2, 5] | Fatal bleeding: Other, number of patients [n] [2, 5] | Non-fatal bleeding associated with a fall in hemoglobin >=2 g/dL and/or leading to a transfusion >=2 units of blood, % of patients [2, 5] [%] | Non-fatal bleeding associated with a fall in hemoglobin >=2 g/dL and/or leading to a transfusion >=2 units of blood, number of patients [n] [2, 5] | Non-fatal bleeding into a critical organ: Intracranial, number of patients [n] [2, 5] | Non-fatal bleeding into a critical organ: Other, number of patients [n] [2, 5] | Non-fatal bleeding into a critical organ: Pericardial, number of patients [n] [2, 5] | Non-fatal bleeding into a critical organ: Retroperitoneal, number of patients [n] [2, 5] | also measured
CO[C@H]1O[C@H](COS(=O)(=O)O)[C@@H](O[C@@H]2O[C@@H](C(=O)O)[C@@H](O[C@H]3O[C@H](COS(=O)(=O)O)[C@@H](O[C@@H]4O[C@H](C(=O)O)[C@@H](O[C@H]5O[C@H](COS(=O)(=O)O)[C@@H](OC)[C@H](OC)[C@H]5NC(=O)CCCCCNC(=O)CCCC[C@@H]5SC[C@@H]6NC(=O)N[C@@H]65)[C@H](OC)[C@H]4OC)[C@H](OS(=O)(=O)O)[C@H]3OS(=O)(=O)O)[C@H](OC)[C@H]2OC)[C@H](OS(=O)(=O)O)[C@H]1OS(=O)(=O)O [Idrabiotaparinux, idrabiotaparinux] | 3 | 5.2 | 20 | 0.8 | 0 | 0 | 1 | 0.5 | 2 | 0 | 0 | 0 | 0 | Putative odds ratio (OR) for major bleedings, idrabiotaparinux versus standard treatment (patients with DVT [1]): 0.249; Odds ratio for major bleedings, idrabiotaparinux versus idraparinux ([2]; EQUINOX): 0.200; Kaplan-Meier cumulative incidence of first bleeding (any bleeding), comparison of the two groups ([2]; on-treatment period, at month 3): comparable; Kaplan-Meier cumulative incidence of first major bleeding, comparison of the two groups ([2]; FIG. 2, on-treatment period, after month 2): marked difference in major bleeding incidences between the two treatment groups, in favour of the idrabiotaparinux group; Fatal bleeding: Other, % of patients [2, 5]: 0.3%; Fatal bleeding: Other, number of patients [n] ([2]; major bleedings up to D182 by adjudication criterion, all treated population, listed as idrabiotaparinux): One; Safety (observed bleedings) compared with idraparinux ([2]; patients with DVT treated for 6 months, equimolar doses): better safety with less observed bleedings; anti-activated factor X pharmacological activity (anti-Xa activity) compared with idraparinux (activated factor X): same
CO[C@H]1O[C@H](COS(=O)(=O)O)[C@@H](O[C@@H]2O[C@@H](C(=O)O)[C@@H](O[C@H]3O[C@H](COS(=O)(=O)O)[C@@H](O[C@@H]4O[C@H](C(=O)O)[C@@H](O[C@H]5O[C@H](COS(=O)(=O)O)[C@@H](OC)[C@H](OC)[C@H]5OC)[C@H](OC)[C@H]4OC)[C@H](OS(=O)(=O)O)[C@H]3OS(=O)(=O)O)[C@H](OC)[C@H]2OC)[C@H](OS(=O)(=O)O)[C@H]1OS(=O)(=O)O [Idraparinux, idraparinux] | 14 | 7.3 | 27 | 3.8 | 0 | 3 | 0 | 1.9 | 7 | 2 | 0 | 0 | 2 | Odds ratio for major bleedings, idraparinux versus standard treatment (patients with DVT [3]): 1.245; Incidence of clinically relevant bleedings (any bleedings) (patients with DVT [4]): 8.3%; Rate of major bleedings (patients with DVT [4]): 1.9%; Kaplan-Meier cumulative incidence of first bleeding (any bleeding), comparison of the two groups ([2]; on-treatment period, at month 6): higher than in the idrabiotaparinux group; Fatal bleeding: Intracranial, % of patients [2, 5]: 0.8%; Non-fatal bleeding into a critical organ: Intracranial, % of patients [2, 5]: 0.5%; Non-fatal bleeding into a critical organ: Retroperitoneal, % of patients [2, 5]: 0.5%; Fatal bleeding: Intracranial, number of patients [n] ([2]; major bleedings up to D182 by adjudication criterion, all treated population, listed as idraparinux): three; Intracranial hemorrhages observed (fatal and non-fatal), number ([2]; up to D182, all treated population): five
